Measured values published in paper PMC11395096, “Study of Pentacyclic Triterpenes from Lyophilised Aguaje: Anti-Inflammatory and Antioxidant Properties” (International Journal of Molecular Sciences, 2024).
Starred links: 1 amine or outer side, 2 acyl side, 3 side chain; linkers in the order of their positions; H or OH if unused. Positions of bridges follow the written chain, without caps; N, C: chain ends. Non-standard residues stand in square brackets, D forms with d. Residues, ends and D or L forms follow the SMILES beside them. Chains are numbered I, II in the order given. Actinocin(9to1) = Cc1c2oc3c(C)ccc(C(=O)[*:1])c3nc-2c(C(=O)[*:2])c(N)c1=O; NMeV = CN[C@H](C(=O)O)C(C)C; Sar = CNCC(=O)O

How the values were obtained:
[1] = system: IC-21 and RAW 264.7 cell lines; assay: NR viability assay, value not assigned to one cell line; type: cell-based, Mus musculus; conditions: across IC-21 and RAW 264.7 / cell line not given, compounds series
Procedure: (§1) Cell viability was evaluated using a colorimetric assay in 96-well plates, employing 3-amino-7-dimethylamino-2-methylphenazine hydrochloride salt reagent (NR, Sigma-Aldrich, CAS No. 553-24-2, St. Louis, MO, USA). ACTD (≥95% Sigma-Aldrich, CAS No. 50-76-0, St. Louis, MO, USA) was used as a positive control, with a CC50 value of 0.01 μg mL^−1 for the extracts, or 0.008 μM for the compounds. The IC-21 and RAW 264.7 cell lines were cultured in 96-well plates at 37 °C with 5% CO2 until >90% confluency was achieved (1 × 10^4 cells per well). Subsequently, the cultures were treated with sample dilutions (100–0.20 μg mL^−1 or μM) for 72 h at 37 °C with 5% CO2 in phenol red-free RPMI. The supernatant was then discarded, and the cells were washed with phosphate-buffered saline (PBS) before being incubated with […] NR (50 μg mL^−1; 173 μM) for 3 h at 37 °C with 5% CO2. NR labelling was performed after DMSO treatment. After incubation, the labelled sample dilutions were rapidly washed with a fixative solution composed of 1% calcium chloride (CaCl2 Sigma-Aldrich, CAS No. 10043-52-4, St. Louis, MO, USA) and 0.5% formaldehyde solution (≥36.0% in H2O Sigma-Aldrich, CAS No. 50-00-0, St. Louis, MO, USA), then diluted with 100 μL of the NR extraction solution. Finally, the plates were read at 540 nm using a microplate reader (Anthos 2020, version 2.0.5, Biochrom Ltd., Cambridge, UK).

[2] = as above; type: cell-based, Mus musculus; conditions: mouse
Procedure: as §1

[3] = NR (neutral red) viability assay, IC-21 cells; type: cell-based, Mus musculus; conditions: mouse, IC-21, 72 h
Source text: (§2) The IC-21 (Mus musculus macrophage cells, TIB-186) and RAW 264.7 (Mus musculus macrophage cells, TIB-71) cell lines used in this study were obtained from the American Type Culture Collection (ATCC, Manassas, VA, USA). The selection of IC-21 and RAW 264.7 cell lines for studies on inflammation and antioxidant activity is based on two main reasons: the cell type and their origin. Firstly, both IC-21 and RAW 264.7 cell lines are macrophages, which play a crucial role in the immune system, being essential for the inflammatory response and regulation of oxidative stress. These cells have the capacity to produce pro-inflammatory cytokines, express transcription factors such as NF-κB, and generate NO, making them ideal models to understand inflammatory mechanisms. Moreover, macrophages are involved in the activation of Nrf2, a transcription factor critical for the antioxidant response, allowing these cell lines to enable a comprehensive assessment of antioxidant activity within an inflammatory context.
(§3) Cultivated in a Roswell Park Memorial Institute (RPMI) 1640 medium (RPMI 1640 Sigma-Aldrich, CAS No. R7755, St. Louis, MO, USA) supplemented with 2 mM L-glutamine (≥99% Sigma-Aldrich, CAS No. 56-85-9, St. Louis, MO, USA), 10% foetal bovine serum (FBS Sigma-Aldrich, CAS No. TMS-016, St. Louis, MO, USA), and 10,000 units of penicillin and 10 mg streptomycin mL^−1 (Sigma-Aldrich, CAS No. P4333, St. Louis, MO, USA) in culture flasks, the cells were maintained in an incubator under normoxic conditions (20–21% O2) and a humidified atmosphere (5% CO2, at 37 °C).
(§4) Stock solutions of the samples (extracts and compounds) were prepared at a concentration of 1 mM using dimethyl sulfoxide (DMSO ≥ 99.9% Sigma-Aldrich, CAS No. 67-68-5, St. Louis, MO, USA) as the solvent. Dilutions from these stock solutions were then made to achieve concentrations between 100 and 0.20 μg mL^−1 or μM in the culture medium, which contained 0.5% DMSO. A control group consisting only of the culture medium with 0.5% DMSO was also included to determine its potential cytotoxicity.
(§5) The 50% cytotoxic concentration (CC50), 50% inhibitory concentration (IC50), and half-maximal effective concentration (EC50) values were calculated using the sigmoidal dose–response function. All experiments were conducted in triplicate, and the data obtained were expressed as the mean and standard deviation. A two-way analysis of variance (ANOVA) combined with Dunnett’s multiple comparisons test (p < 0.001) was performed for the cytotoxicity, NF-κB inhibition, NO inhibition and Nrf2 activation assays, while a one-way ordinary ANOVA combined with Dunnett’s multiple comparisons test (p < 0.001) was conducted for the SOD assay. All statistical analyses were performed using GraphPad Prism version 10.0.0 (La Jolla, CA, USA, www.graphpad.com, accessed on 28 August 2024).
as §1, with “After incubation, the labelled sample dilutions were rapidly washed with a fixative solution composed of 1% calcium chloride (CaCl2 Sigma-Aldrich, CAS No. 10043-52-4, St. Louis, MO, USA) and 0.5% formaldehyde solution (≥36.0% in H2O Sigma-Aldrich, CAS No. 50-00-0, St. Louis, MO, USA), then diluted with 100 μL of the NR extraction solution. Finally, the plates were read at 540 nm using a microplate reader (Anthos 2020, version 2.0.5, Biochrom Ltd., Cambridge, UK).” left out

[4] = NR (neutral red) viability assay, RAW 264.7 cells; type: cell-based, Mus musculus; conditions: mouse, RAW 264.7, 72 h
Source text: as §2, §3, §4, §5
as §1, with “After incubation, the labelled sample dilutions were rapidly washed with a fixative solution composed of 1% calcium chloride (CaCl2 Sigma-Aldrich, CAS No. 10043-52-4, St. Louis, MO, USA) and 0.5% formaldehyde solution (≥36.0% in H2O Sigma-Aldrich, CAS No. 50-00-0, St. Louis, MO, USA), then diluted with 100 μL of the NR extraction solution. Finally, the plates were read at 540 nm using a microplate reader (Anthos 2020, version 2.0.5, Biochrom Ltd., Cambridge, UK).” left out

Nrf2 = conditions: cited from earlier work

Molecule `Cc1c2oc3c(C)ccc(C(=O)N[C@@H]4C(=O)N[C@H](C(C)C)C(=O)N5CCC[C@H]5C(=O)N(C)CC(=O)N(C)[C@@H](C(C)C)C(=O)O[C@@H]4C)c3nc-2c(C(=O)N[C@@H]2C(=O)N[C@H](C(C)C)C(=O)N3CCC[C@H]3C(=O)N(C)CC(=O)N(C)[C@@H](C(C)C)C(=O)O[C@@H]2C)c(N)c1=O` [ACTD, actinomycin D, reference compound] (I: T[dV]P[Sar][NMeV] / II: T[dV]P[Sar][NMeV]; ester I:1-I:C, II:1-II:C; linker I:N-II:N via Actinocin(9to1)) has a CC50 [1] of 8 nM, a CC50 at 72 h ([2]; across IC-21 and RAW 264.7 / cell line not given, compounds series) of 8.5 to 8.8 nM and a CC50 at 72 h ([2]; cell line not stated, extracts series) of 0.01 µg/mL. It also gave a CC50 at 72 h ([3]; compounds series) of 8.5 nM, a CC50 at 72 h ([3]; extracts series) of 0.0143 µg/mL and a CC50 at 72 h ([4]; compounds series) of 8.8 nM. It also gave a CC50 at 72 h ([4]; extracts series) of 0.0193 µg/mL.
In the case of `C[S+]([O-])CCCCN=C=S` (centres unmarked) [sulforaphane], the “concentration activating the Nrf2 signalling pathway” value (Nrf2) is listed as 5 to 20 µM.
